From ChEMBL document CHEMBL1201862, “PubChem BioAssay data set” (2004)
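Where inhibition never reached the appropriate level, the endpoint shown equals the highest concentration tested. Otherwise, values were interpolated linearly from a five-concentration, 48-hour dose response in 96-well plates. GI50: concentration for 50% inhibition of growth.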 Activity calls are given as the source filed them. Rule as the data show it: active = GI50 up to about 1.1 µM and inactive = higher.

Columns and labels:
Assay in all cases: inhibition of tumour cell growth, NCI panel, 48 h
[1] = tested on: SW-620
[2] = tested on: SF-295
[3] = tested on: CCRF-CEM
[4] = tested on: RPMI-8226
[5] = tested on: SNB-75
[6] = tested on: TK-10
[7] = tested on: DMS-273
[8] = tested on: SN12C
[9] = tested on: SF-539
[10] = tested on: K562
[11] = tested on: HOP-62
[12] = tested on: UACC-62
[13] = tested on: COLO 205
[14] = tested on: A549
[15] = tested on: MOLT-4
[16] = tested on: OVCAR-8
[17] = tested on: HCT-15
[18] = tested on: U-251
[19] = tested on: HOP-18
[20] = tested on: SNB-78
[21] = tested on: KM-20L2
[22] = tested on: HCC 2998
[23] = tested on: HL-60
[24] = tested on: Malme-3M
[25] = tested on: SK-OV-3
[26] = tested on: NCI-H460
[27] = tested on: LXFL 529
[28] = tested on: M19-MEL
[29] = tested on: UACC-257
[30] = tested on: IGROV-1
[31] = tested on: 786-0
[32] = tested on: OVCAR-4
[33] = tested on: DLD-1
[34] = tested on: HT-29
[35] = tested on: HOP-92
[36] = tested on: ACHN
[37] = tested on: OVCAR-3
[38] = tested on: A498
[39] = tested on: SNB-19
[40] = tested on: KM12
[41] = tested on: M14
[42] = tested on: XF498
[43] = tested on: SF-268
[44] = tested on: NCI-H522
[45] = tested on: EKVX
[46] = tested on: SK-MEL-5
[47] = tested on: UO-31
[48] = tested on: SK-MEL-2
[49] = tested on: NCI-H23
[50] = tested on: HCT-116
[51] = tested on: NCI-H226
[52] = tested on: RXF 631
[53] = tested on: SK-MEL-28
[54] = tested on: CAKI-1
[55] = tested on: OVCAR-5
[56] = tested on: DMS-114

Measured: GI50

Cn1c(=O)nc2n(-c3ccc(O)cc3)c3ccccc3nc-2c1=O
inactive: [1] 76.4 µM | [2] > 100 µM | [3] 33 µM | [4] 63.7 µM | [5] 9.23 µM | [6] > 100 µM | [7] 11.5 µM | [8] > 100 µM | [9] 5.56 µM | [10] > 100 µM | [11] 55.8 µM | [12] 16.4 µM | [13] 23.9 µM | [14] 36.7 µM | [15] 54.5 µM | [16] 44.5 µM | [18] 14 µM | [19] > 100 µM | [20] > 100 µM | [21] 64.3 µM | [22] 29.9 µM | [23] > 100 µM | [24] 18.9 µM | [25] > 100 µM | [26] 11 µM | [27] > 100 µM | [28] 20 µM | [29] > 100 µM | [30] > 100 µM | [31] 17.3 µM | [32] > 100 µM | [33] > 100 µM | [34] > 100 µM | [35] 26.4 µM | [36] 2.78 µM | [37] 17.9 µM | [38] > 100 µM | [39] > 100 µM | [40] 55.3 µM | [41] 20.4 µM | [42] 60 µM | [43] 23.2 µM | [44] > 100 µM | [45] > 100 µM | [46] 18.7 µM | [47] > 100 µM | [48] 82.2 µM | [49] 23.3 µM | [50] > 100 µM | [51] 92.3 µM | [52] 63.5 µM | [53] > 100 µM | [54] 13.7 µM | [55] > 100 µM | [56] 22.5 µM
> 100 µM: [17]
